# Measurements published in patent US20250108213A1, “COMPOSITIONS AND METHODS FOR ENHANCING THE EFFECT OF PLATINUM-BASED SYSTEMIC THERAPY” (NOVOCURE GMBH, priority 2023, published 2025).
# “Also recorded” adds a separate entry of the source. Read-outs that look alike come from different tables or passages of the source.
# Tests used:
# [1] = tested on: G2/M cell cycle arrest; experiment: Cell cycle analysis (7-AAD, flow cytometer); type: cell-based, human
# Description: For DNA damage and cell cycle examination, the following drug concentrations were selected: For A2780—6 μM carboplatin, 1 μM olaparib, and 0.5 μM niraparib; For OVCAR-3-16 μM carboplatin, 0.5 μM olaparib, and 0.8 μM niraparib; For A2780cis—36 μM carboplatin, 10 μM olaparib, and 1.5 μM niraparib. Treated cells were fixed with 70% ice-cold ethanol for 30 min, pelleted, washed, and stained for 30 min at 37° C. in phosphate buffered saline (PBS) containing 1% FBS 5 μg/ml 7-AAD (BioLegend), 200 μg/ml RNase, 1 mM EDTA and 0.1% Triton X-100. Data acquisition (at 665/30 nm) and analysis were done on the Cytek Northern Lights flow cytometer and the FlowJo 10.8.1 software (BD Biosciences), respectively.
# [2] = tested on: γH2AX foci in cell nuclei; experiment: DNA damage examination by fluorescence microscopy; type: cell-based, human
# Description: For DNA damage and cell cycle examination, the following drug concentrations were selected: For A2780—6 μM carboplatin, 1 μM olaparib, and 0.5 μM niraparib; For OVCAR-3-16 μM carboplatin, 0.5 μM olaparib, and 0.8 μM niraparib; For A2780cis—36 μM carboplatin, 10 μM olaparib, and 1.5 μM niraparib. Treated cells were fixed with 4% paraformaldehyde for 10 min, permeabilized for 20 min with 0.5% Triton X-100 in PBS, and blocked with donkey serum (PBS with 0.3% Triton X-100 and donkey serum 1:100). Cells were incubated at 4° C. overnight with anti-γH2AX antibody (Cell Signaling, Danvers, MA, USA; #9718, 1:400), followed by incubation at room temperature for 1 hr with Alexa Flour 488-conjugated secondary antibody (Jackson Immunoresearch, Cambridge, UK; #711-545-152, 1:500) and […] 4′,6-diamidino-2-phenylindole (DAPI; Sigma Aldrich, Rehovot, Israel). LSM 700 laser scanning confocal system (Zeiss, Gottingen, Germany) was utilized to obtain images, and the mean number of foci per nucleus was determined using the FIJI software with the BioVoxxel plugin.
# [3] = tested on: A2780 cells; experiment: Apoptosis, Annexin V/7-AAD staining, flow cytometer; type: cell-based, human; conditions: TTFields applied with drug
# Description: (§1) Apoptosis: Treated cells were double-stained with FITC-conjugated annexin V (AnnV) and 7-aminoactinomycin D (7AAD), and data acquisition was performed with a flow cytometer.
# (§2) Apoptosis was also examined. Treated cells were double-stained with FITC-conjugated annexin V (AnnV) and 7-aminoactinomycin D (7AAD), and data acquisition was performed with a flow cytometer.
# (§3) Treated cells were stained with FITC-conjugated Annexin V (AnnV) and 7-Aminoactinomycin D (7-AAD) using a commercial kit (BioLegend, San Diego, CA, USA), according to the manufacturer's instruction. Data acquisition and analysis were done on the Cytek Northern Lights flow cytometer
# [4] = tested on: A2780cis cells; experiment: Cell count and overall effect (cell count x colony formation) after 72 h drug with or without TTFields; type: cell-based, human; conditions: for effect of TTFields on the drug-induced overall effect (cell count x colony formation) / effect of TTFields on the drug-induced effect, cell count: TTFields plus drug vs drug alone; for effect of TTFields on the drug-induced effect, cell count: p<0.0001; for sensitivity to drug (cell count dose response) / effect of TTFields on sensitivity to / effect of the drug / type of TTFields-drug interaction (measured vs calculated additive curve): 72 h; for sensitivity to drug (cell count dose response): compared among A2780, OVCAR-3, A2780cis; for effect of TTFields on sensitivity to / effect of the drug: platinum-resistant cell line; for effect of TTFields on sensitivity to / effect of the drug / type of TTFields-drug interaction (measured vs calculated additive curve): TTFields 200 kHz, 1 V/cm RMS; for type of TTFields-drug interaction (measured vs calculated additive curve): platinum-resistant cells
# Description: (§4) TTFields were applied to the cells for 72 h in the absence or presence of various concentrations of carboplatin. Synergy was defined when the observed value was lower than that predicted for an additive effect (presented by the red dotted line-calculated by multiplying the observed effects for TTFields alone with that for cisplatin alone).
# The Cytotoxic effect was also determined. Treated cells were counted using a flow cytometer, and cytotoxic effect was calculated relative to control cells.
# Treated cells were harvested, re-plated, and grown for an additional 7-14 days. Colonies were stained (0.5% crystal violet solution), counted, and clonogenic effect was calculated relative to control. The overall effect was calculated by multiplying the cytotoxic and clonogenic effects.
# TTFields application was studied. Ovarian carcinoma cells A2780cis (cisplatin resistant cells) were treated for 72 h with TTFields at an intensity of 1 V/cm RMS and a frequency of 200 kHz using the inovitro system (See FIG. 11).
# as §4, with “PARPi Olaparib and Niraparib.” for “carboplatin.”
# The cytotoxic effect was studied. Treated cells were counted using a flow cytometer, and cytotoxic effect was calculated relative to control cells.
# Treated cells were harvested, re-plated, and grown for an additional 7-14 days. Colonies were stained (0.5% crystal violet solution), counted, and clonogenic effect was calculated relative to control. Overall effect was calculated by multiplying the cytotoxic and clonogenic effects.
# (§5) Cells were seeded on coverslip (22 mm diameter; 20×10^3 cells/coverslip for A2780 and A2780cis; 40×10^3 cells/coverslip for OVCAR-3). After overnight incubation, the coverslips were transferred into in vitro dishes containing 2 ml of media. TTFields at a frequency of 200 kHz (and intensity of 1 V/cm RMS) were applied to the cells for 72 hr using the INOVITRO system (Novocure, Haifa, Israel).
# (§6) For efficacy outcomes (cell count, overall effect, and apoptosis), various concentrations of carboplatin (MCE MedChemExpress, HY-17393), olaparib (Cayman Chemical, 10621), or niraparib (Cayman Chemical, 20842) were applied, with or without TTFields.
# (§7) Cell count was examined following treatment using Cytek Northern Lights flow cytometer (Cytek Biosciences, USA).
# (§8) Treated cells were harvested, re-plated in 6-well plates (500 cells/well for A2780 and A2780cis; 1000 for cells/well OVCAR-3), and grown for 7 (A2780 and A2780cis) or 21 (OVCAR-3) days. Colonies were stained with 0.5% crystal violet, quantified with ImageJ, and expressed as percentages relative to control. Overall effect was calculated by multiplying colony formation with the corresponding cell count.
# (§9) The surviving fraction predicted for an additive effect between TTFields and drug was calculated per the various drug concentrations by multiplying the actual measured surviving fractions for the individual treatments one by the other (SFcalculated additive=SFTTFields×SFdrug; SF are expressed as probability). Based on the calculated values, a trendline was determined. Additivity, synergy, or antagonism was defined when the calculated additive trendline overlapped, was above, or was below the actual measured line for TTFields+drug, respectively.
# (§10) For quantifying the magnitude of TTFields-drug interaction, interaction index (Ii) values were calculated by the Bliss independence method using mortality values (Mx=1−SFx). Per the various drug concentrations, mortality predicted for an additive effect between TTFields and drug (Mcalculated additive=MTTFields+Mdrug−MTTFields×Mdrug) was divided by the actual measured mortality for TTFields+drug.
# [5] = tested on: OVCAR-3 cells; experiment: Apoptosis, Annexin V/7-AAD staining, flow cytometer; type: cell-based, human; conditions: TTFields applied with drug
# Description: as §1, §3
# [6] = tested on: A2780cis cells; experiment: as above; type: cell-based, human; conditions: TTFields applied with drug
# Description: as §2
# Treated cells were double-stained with FITC-conjugated annexin V (AnnV) and 7-aminoactinomycin D (7AAD), and data acquisition was performed with a flow cytometer.
# as §3
# [7] = tested on: A2780 cells; conditions: for type of TTFields-drug interaction (measured vs calculated additive curve): HRP cells; for effect of TTFields on the drug-induced overall effect (cell count x colony formation) / effect of TTFields on the drug-induced effect, cell count: TTFields plus drug vs drug alone; for effect of TTFields on the drug-induced effect, cell count: p<0.0001
# Description: as §5, §6, §7, §8, §9
# as §10, with “TTFields+drug. Additivity was determined when the 95% confidence interval (CI) overlapped 1, synergy when 95% CI<1, and antagonism when 95% CI>1. Lower Ii values were considered indicative of higher synergy levels.” for “TTFields+drug.”
# [8] = tested on: OVCAR-3 cells; conditions: for effect of TTFields on the drug-induced overall effect (cell count x colony formation) / effect of TTFields on the drug-induced effect, cell count: TTFields plus drug vs drug alone; for effect of TTFields on the drug-induced effect, cell count: p<0.0001; for sensitivity to drug (cell count dose response): drug alone, compared among A2780, OVCAR-3, A2780cis
# Description: as §5, §6, §7, §8, §9
# as §10, with “TTFields+drug. Additivity was determined when the 95% confidence interval (CI) overlapped 1, synergy when 95% CI<1, and antagonism when 95% CI>1. Lower Ii values were considered indicative of higher synergy levels.” for “TTFields+drug.”
# [9] = treatment alone, all cell lines (A2780, OVCAR-3, A2780cis), relative to control
# [10] = Bliss independence, TTFields plus drug
# [11] = TTFields 200 kHz, 1 V/cm RMS, 72 h
smiles,measurement,setting,value
N.N.O=C([O-])C1(C(=O)[O-])CCC1.[Pt+2] [carboplatin],"cell cycle arrest, drug alone",[1],induced G2/M arrest
same,"levels of γH2AX foci, monotherapy","[2]; drug alone, OVCAR-3 cells",especially dramatic
same,"levels of γH2AX foci, monotherapy",[2]; [9],more pronounced effect
same,effect of TTFields on the apoptotic effect / apoptotic cell fraction,[3],enhanced; also recorded: increases
same,level of TTFields-drug synergy,"[4]; A2780cis relative to A2780 cells, by Ii",higher levels
same,"interaction index (Ii), 95% confidence interval",[4]; [10],smaller than 1
same,effect of TTFields on the drug-induced overall effect (cell count x colony formation),[4],significantly elevated
same,"effect of TTFields on the drug-induced effect, cell count",[4],significantly amplified
same,sensitivity to drug (cell count dose response),[4]; drug alone,lower response; also recorded: highest resistance
same,decreased sensitivity of A2780cis cells compared with wild type A2780 cells,"[4]; drug alone, titration",5 fold
same,effect of TTFields on sensitivity to / effect of the drug,[4],increased the sensitivity
same,type of TTFields-drug interaction (measured vs calculated additive curve),[4],synergistic; also recorded: synergistically; also recorded: tendency to synergy
same,effect of TTFields on the apoptotic effect / apoptotic cell fraction,[5],enhanced; also recorded: increases
same,effect of TTFields on the apoptotic effect / apoptotic cell fraction,[6],increases
same,"interaction index (Ii), 95% confidence interval",[7]; [10],smaller than 1
same,type of TTFields-drug interaction (measured vs calculated additive curve),[7]; [11],tendency to synergism; also recorded: additive; also recorded: tendency to synergy
same,"type of TTFields-drug interaction, overall effect (cell count and clonogenic effect)",[7]; [11],Signs of synergy
same,"type of TTFields-drug interaction, cytotoxic effect (cell count)","[7]; TTFields 200 kHz, 1 V/cm RMS, 72 h, BRCA wt",Signs of synergy
same,effect of TTFields on the drug-induced overall effect (cell count x colony formation),[7],significantly elevated
same,"effect of TTFields on the drug-induced effect, cell count",[7],significantly amplified
same,"interaction index (Ii), 95% confidence interval",[8]; [10],> 1
same,effect of TTFields on the drug-induced overall effect (cell count x colony formation),[8],significantly elevated
same,"effect of TTFields on the drug-induced effect, cell count",[8],significantly amplified
same,sensitivity to drug (cell count dose response),[8]; 72 h,highest sensitivity
NC(=O)c1cccc2cn(-c3ccc([C@@H]4CCCNC4)cc3)nc12 [niraparib],"cell cycle arrest, drug alone",[1],induced G2/M arrest
same,"levels of γH2AX foci, monotherapy",[2]; [9],mild elevation
same,effect of TTFields on the apoptotic effect / apoptotic cell fraction,[3],enhanced; also recorded: elevation
same,effect of TTFields on the drug-induced overall effect (cell count x colony formation),[4],significantly augmented
same,"effect of TTFields on the drug-induced effect, cell count",[4],significantly augmented
same,sensitivity to drug (cell count dose response),[4]; drug alone,highest resistance
same,effect of TTFields on sensitivity to / effect of the drug,[4],increased the sensitivity
same,type of TTFields-drug interaction (measured vs calculated additive curve),[4],tendency to synergy
same,effect of TTFields on the apoptotic effect / apoptotic cell fraction,[5],enhanced; also recorded: elevation
same,effect of TTFields on the apoptotic effect / apoptotic cell fraction,[6],elevation
same,"type of TTFields-drug interaction, cytotoxic effect (cell count)",[7],synergistically
same,level of TTFields-drug synergy,"[7]; A2780 relative to A2780cis cells, by Ii",higher
same,type of TTFields-drug interaction (measured vs calculated additive curve),[7]; [11],high synergy
same,"type of TTFields-drug interaction, overall effect (cell count and clonogenic effect)",[7]; [11],synergistically
same,effect of TTFields on the drug-induced overall effect (cell count x colony formation),[7],significantly augmented
same,"effect of TTFields on the drug-induced effect, cell count",[7],significantly augmented
same,"type of TTFields-drug interaction, cytotoxic effect (cell count)",[8],additively
same,type of TTFields-drug interaction (measured vs calculated additive curve),"[8]; HRD cells, TTFields 200 kHz, 1 V/cm RMS, 72 h",additively
same,"type of TTFields-drug interaction, overall effect (cell count and clonogenic effect)",[8]; [11],additive
same,effect of TTFields on the drug-induced overall effect (cell count x colony formation),[8],significantly augmented
same,"effect of TTFields on the drug-induced effect, cell count",[8],significantly augmented
same,sensitivity to drug (cell count dose response),[8]; 72 h,highest sensitivity
